From patent US20050191612A1, “Method of screening insulin content enhancer” (priority 2002, published 2005)

Columns and labels:
[1] = system: insulin promoter activity in mouse pancreatic β cell line NIT1 cells; assay: Insulin promoter reporter (plasmid InsPro) luciferase activity in NIT1 cells; type: cell-based; settings: compound 30 μmol/L, treatment 31 hours, p<0.01
Description: A transfection reagent (LIPOFECTAMINE 2000; GIBCO BRL, or FuGENE6; Boeringer Mannheim) was used to introduce plasmid InsPro (1-10 ng) prepared in Example 2 to mouse pancreatic β cell line NIT1 cells (4×10^4 cells). The trasfected cells were seeded on a 96-well plate. A Dulbecco modified Eagles' medium (DMEM) or F-12 medium containing 10% fetal calf serum (FCS) was used as a medium. After the seeding, the cells were cultured for 18-20 hours. […] After the medium was aspirated, the cells were lysed with a cell lysing solution (cell lysis buffer LCβ; Toyo Ink Mfg.). A luciferase activity of each lysate was measured by a commercially available measuring kit (PicaGene Luminescent kit; Toyo Ink Mfg.) and a measuring apparatus (ML3000 microtiter plate luminometer; Dynatech Laboratories). […] Further, where the above procedure is repeated except for using a cell not expressing the polypeptide for a screening tool, as a control cell, instead of the cell for a screening tool, when the insulin promoter reporter activity is not increased in the control cell, it can be judged that such a test substance can activate the polypeptide consisting of the amino acid sequence of SEQ ID NO: 2.
Next, compounds A-E were evaluated in a manner similar to that described in Example 5. More particularly, a 96-well plate coated with collagen was used as the 96-well plate, and DMEM was used as the medium. […]

SD rats = assay: Glucose tolerance test for SD rats by one oral dose; type: in vivo, rat; settings: 100 mg/kg intraperitoneally 5 min before 2 g/kg oral glucose, at 30 minutes, p<0.05
Description: (§1) SD rats (4 weeks old; CLEA JAPAN) were made to fast overnight, and 2 g/kg of glucose was orally administered. Compound A (100 mg/kg) had been intraperitoneally administered 5 minutes before the glucose administration. An appropriate amount of blood was taken at 0 minute, 30 minutes, 60 minutes, and 120 minutes after the glucose administration, and used for the measurement of a blood glucose level and a concentration of plasma insulin.
(§2) For measuring the blood glucose level, a supernatant obtained by mixing blood and 0.33 mol/L perchloric acid (blood:0.33 mol/L perchloric acid=1:10) and centrifuging the mixture (3000×g, 10 minutes, 4° C.) was used. For measuring the concentration of plasma insulin, a supernatant obtained by centrifuging blood (3000×g, 10 minutes, 4° C.) was used. Further, Glucose C test Wako (Wako) was used in the measurement of the blood glucose level, and a rat insulin assay system (Amersham) was used in the measurement of the concentration of plasma insulin.
FIG. 4 illustrates a time course of the concentration of plasma insulin (unit=ng/mL) after the oral administration of glucose, and FIG. 5 illustrates a time course of the blood glucose level (unit=mg/dL) after the oral administration of glucose. The mark “*” in FIGS. 4 and 5 denotes that a significant difference from the group to which compound A had not been administered was p<0.05 (Student's t-test).

[2] = system: GK (Goto-Kakizaki) rats (type II diabetes models); assay: Glucose tolerance test for GK (Goto-Kakizaki) rats by one oral dose; type: in vivo, rat; settings: 100 mg/kg orally, at 30 and 60 minutes after glucose administration
Description: as §1, §2
Then, a glucose tolerance test for GK (Goto-Kakizaki) rats (type II diabetes models with incomplete insulin secretion; 7 weeks old; Charles River Japan) by one oral dose was carried out. The GK rat line was established by selectively mating wistar rats in accordance with an index of a poor tolerance in an oral glucose tolerance test, by Yoshio Goto, et al., School of Medicine, Tohoku University, in 1975. […]

SMILES: S=C(OCCc1ccncc1)c1ccccc1 [compound A, 2-(pyridine-4-yl)ethyl thiobenzoate]
- increased value of the reporter activity with respect to control group [1]: ≥ 1.5 times
- concentration of plasma insulin after glucose administration (SD rats): significant increase
- increase of the blood glucose level by the glucose administration (SD rats): significantly suppressed
- increase of the blood glucose level by the glucose administration [2]: significantly suppressed
